Experiments:
[1] = target: T1, SPT (Homo sapiens, UniProt O15269+O15270); assay: Serine palmitoyltransferase activity, Assay C ([3H]serine incorporation into lipids, cell homogenates); format: biochemical; conditions: [3H]serine radioactivity incorporated into lipids, 37° C. 20 min, at the doses indicated
T1 construct: endogenous in cells; host or cells: unnamed cultured cells (Assay B, which Assay C modifies, offers 'CHO cells or a human cell line')
T1 sequence (O15269 1-473): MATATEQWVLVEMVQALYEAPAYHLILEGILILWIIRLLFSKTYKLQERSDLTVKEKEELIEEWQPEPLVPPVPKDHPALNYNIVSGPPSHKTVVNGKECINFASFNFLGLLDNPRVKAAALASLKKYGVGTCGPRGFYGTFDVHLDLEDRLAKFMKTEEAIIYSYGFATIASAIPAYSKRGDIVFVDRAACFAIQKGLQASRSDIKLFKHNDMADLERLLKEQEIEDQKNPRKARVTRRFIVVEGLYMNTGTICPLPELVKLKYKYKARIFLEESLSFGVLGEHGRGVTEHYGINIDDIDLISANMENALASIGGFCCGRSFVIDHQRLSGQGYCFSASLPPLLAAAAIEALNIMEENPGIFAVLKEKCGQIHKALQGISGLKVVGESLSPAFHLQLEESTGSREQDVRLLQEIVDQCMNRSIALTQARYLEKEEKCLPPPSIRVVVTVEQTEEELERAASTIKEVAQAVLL
T1 sequence (O15270 1-562): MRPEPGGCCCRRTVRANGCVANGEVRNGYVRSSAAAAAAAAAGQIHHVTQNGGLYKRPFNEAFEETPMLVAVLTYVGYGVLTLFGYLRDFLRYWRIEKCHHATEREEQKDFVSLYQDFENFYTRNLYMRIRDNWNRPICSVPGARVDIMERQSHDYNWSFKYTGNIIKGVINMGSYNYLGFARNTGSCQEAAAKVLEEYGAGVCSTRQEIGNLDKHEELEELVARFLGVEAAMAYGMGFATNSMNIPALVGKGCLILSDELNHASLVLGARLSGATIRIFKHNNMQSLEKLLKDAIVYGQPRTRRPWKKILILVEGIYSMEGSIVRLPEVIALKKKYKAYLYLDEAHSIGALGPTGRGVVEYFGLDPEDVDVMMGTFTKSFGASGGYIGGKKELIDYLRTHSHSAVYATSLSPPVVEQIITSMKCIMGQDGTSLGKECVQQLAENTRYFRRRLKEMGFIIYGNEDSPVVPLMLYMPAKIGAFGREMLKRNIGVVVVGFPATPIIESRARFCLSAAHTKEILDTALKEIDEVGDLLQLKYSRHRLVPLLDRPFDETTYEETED
T1 sequence (Q969W0 1-71 partner): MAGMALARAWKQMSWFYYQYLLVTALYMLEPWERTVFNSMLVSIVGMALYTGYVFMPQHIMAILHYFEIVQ
Protocol: An alternative assay for evaluating inhibition of SPT, the enzyme present in commonly cultured cells, is performed with CHO cells or a human cell line. Cells are washed three times with ice-cold phosphate-buffered saline (PBS). A total of 0.5 mL of lysis buffer [50 mM Hepes (pH 8.0) containing 5 mM ethylenediaminetetraacetic acid (EDTA) and 5 mM dithiothreitol (DTT)] is added to each dish. The cells are scraped using a rubber policeman, and are then transferred to a test tube on ice. The cell suspension is sonicated three times for 5 s at 1-2 min intervals on ice. Protein concentrations in cell homogenates are measured using a Bradford protein assay kit (Bio-Rad). […] The radioactivity is measured with a LS6000TA liquid scintillation counter (Beckman). Nonspecific conversion of [^3H] serine to chloroform-soluble species is determined by performing the assay in the absence of palmitoyl CoA. […]
An alternative assay using a non-chlorinated solvent modification of the Blye and Dyer lipid extraction method reported in Smedes (Smedes, F. (1999) Analyst 124, 1711-18) is employed to evaluate exemplary compounds. […] An accurately measured portion of the organic layer (4.0 ml) is added to a scintillation vial with 1 ml of water. […] The amount of [^3H] serine radioactivity incorporated into lipids is quantified in a scintillation counter. […]

[2] = tested on: Rat pancreatic islets; assay: Protection of islets by an SPT inhibitor (fatty acid medium, propidium iodide flow cytometry); format: cell-based; conditions: 3 days
Protocol: Islet protection by an exemplary compound is evaluated in an assay according to Eitel, K, et al. Biochem. Biophys. Res. Commun. 299: 853-6 (2002), and results obtained in this assay are reported below in Table 4. Rat pancreatic islets are cultured with control medium (RPMI 1640 supplemented with 10% fetal bovine serum, antibiotics and made […]) or in medium supplemented with 1 millimolar sodium palmitate (Fatty Acid Medium) during a period of 3 days. The culture medium is changed after 2 days to an identical composition culture medium with fresh inhibitor in the appropriate wells. Cells are stained with propidium iodide (PI), washed and propidium staining of cells (as a measure of cellular DNA content) is assessed by flow cytometry. The percentage of cells having less than the normal amount of PI staining is considered to be apoptotic cells (Eitel, K, et al. (2002)).

[3] = tested on: diabetic Zucker fatty rat model; conditions: inhibition of SPT; cited from earlier work
[4] = tested on: SPT; conditions: literature report, immunosuppressive assay for FTY720-like activity; cited from earlier work

Structure (SMILES)	inhibition of SPT [1]	activity against SPT [4]	also measured
CCCCCCCOc1ccc(CCC(O)C(O)C(N)(CC(N)=O)C(=O)O)cc1 (stereo not shown) [Compound 12]	moderate activity		protection of cells from the fatty acid treatment (apoptotic cells by PI staining) ([2]; 1 millimolar sodium palmitate): fully protect; benefit in comparison to treatment with the control medium ([2]; PI staining): imparts a benefit
N[C@@H]1CON=C1O [cycloserine]			beta cell protective effect [3]: ≈ 50%
CCCCCCCCc1ccc(CCC(N)(CO)C(=O)O)cc1 (stereo not shown) [compound 2]		did not exhibit activity	
CCCCCCC(=O)CCCCCC/C=C/C[C@@H](O)[C@H](O)[C@@](N)(CO)C(=O)O [ISP-1, myriocin]	potent but non-selective inhibition		
CCCCCCCCc1ccc(CCC(N)(CO)CO)cc1 [FTY720]		do not inhibit SPT	

Reference: patent publication US20080096799A1, “COMPOUNDS FOR AND METHODS OF TREATING INSULIN RESISTANCE AND INFLAMMATION” (FORBES MEDI-TECH (RESEARCH), INC., priority 2006, published 2008)
